Assay results taken from ChEMBL document CHEMBL4004785, “Spiro Meroterpenoids from Ganoderma applanatum” (J Nat Prod, 2017).

Biological target: T1, Tyrosine-protein kinase JAK3 (Homo sapiens, UniProt P52333)
T1 sequence (P52333 whole entry): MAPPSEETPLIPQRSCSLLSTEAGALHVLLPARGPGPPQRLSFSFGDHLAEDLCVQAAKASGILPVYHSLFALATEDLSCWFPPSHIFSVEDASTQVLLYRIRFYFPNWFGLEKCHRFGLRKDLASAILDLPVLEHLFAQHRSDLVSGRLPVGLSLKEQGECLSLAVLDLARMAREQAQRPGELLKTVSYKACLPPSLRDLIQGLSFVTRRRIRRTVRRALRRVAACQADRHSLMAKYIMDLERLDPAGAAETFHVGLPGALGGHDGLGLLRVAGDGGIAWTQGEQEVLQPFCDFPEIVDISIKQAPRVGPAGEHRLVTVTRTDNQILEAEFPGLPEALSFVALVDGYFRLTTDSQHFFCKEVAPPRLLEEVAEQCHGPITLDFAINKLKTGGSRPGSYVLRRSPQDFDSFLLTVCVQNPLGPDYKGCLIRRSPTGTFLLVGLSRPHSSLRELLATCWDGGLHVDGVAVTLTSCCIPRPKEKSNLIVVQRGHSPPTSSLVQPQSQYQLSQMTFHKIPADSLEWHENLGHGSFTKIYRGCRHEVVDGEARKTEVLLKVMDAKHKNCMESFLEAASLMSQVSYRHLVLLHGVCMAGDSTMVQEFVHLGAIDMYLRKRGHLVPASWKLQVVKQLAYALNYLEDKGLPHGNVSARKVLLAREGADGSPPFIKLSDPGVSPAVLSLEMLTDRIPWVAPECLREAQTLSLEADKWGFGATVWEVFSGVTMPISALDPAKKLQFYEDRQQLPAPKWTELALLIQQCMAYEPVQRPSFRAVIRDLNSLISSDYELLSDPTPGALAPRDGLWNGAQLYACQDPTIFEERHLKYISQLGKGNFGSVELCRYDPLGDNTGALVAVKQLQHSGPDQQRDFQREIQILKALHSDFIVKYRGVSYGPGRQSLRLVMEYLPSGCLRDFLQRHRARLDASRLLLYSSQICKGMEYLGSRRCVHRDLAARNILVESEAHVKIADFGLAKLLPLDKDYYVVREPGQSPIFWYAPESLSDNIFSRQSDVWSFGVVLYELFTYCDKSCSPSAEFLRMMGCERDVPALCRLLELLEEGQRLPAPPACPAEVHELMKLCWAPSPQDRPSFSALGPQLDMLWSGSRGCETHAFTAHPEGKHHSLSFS
Assay: Inhibition of human recombinant GST-tagged JAK3 cytoplasmic domain (781 to 1124 residues) expressed in baculovirus expression system incubated for 1 hr by FRET-based Z'-Lyte assay

Compound | IC50 [µM]
O=CC1=CCC[C@@H](C(=O)O)[C@]2(C1)Oc1ccc(O)cc1C2=O | 7
O=CC1=CCC[C@@H](C(=O)O)[C@@]2(C1)Oc1ccc(O)cc1C2=O | 34.8
